Experimental data as given in BindingDB's records for patent US20250019387 (Frontier Medicines, 2025).

Target: GTPase KRas [G12C,C51S,C80L,C118S]/RAF proto-oncogene serine/threonine-protein kinase (Homo sapiens, UniProt P01116, C118S/C51S/C80L/G12C)
Test: Inhibition of KRASG12C and cRAF Binding
Protocol: Compounds were diluted in 100% DMSO and each compound concentration was spotted at 200 nl/well onto low volume, white 384 well plates. […] Plates were incubated for 19-20 hours. A mixture of RBD and the AlphaScreen streptavidin donor and glutathione acceptor beads diluted in 25 mM Hepes, pH 7.4, 150 mM NaCl, 5 mM MgCl2, 0.01% TritonX-100 and 2% DMSO was then added at 10 ul/well and incubated for 60-90 minutes before the samples were read for emission at 570 nm after excitation of the donor beads at 680 nm. All incubations were performed at room temperature. […] IC50s were determined using nonlinear regression fit of [inhibitor]vs. response (4 parameters).

Chain of GTPase KRas [G12C,C51S,C80L,C118S]/RAF proto-oncogene serine/threonine-protein kinase (P01116 1-169 G12C/C51S/C80L/C118S): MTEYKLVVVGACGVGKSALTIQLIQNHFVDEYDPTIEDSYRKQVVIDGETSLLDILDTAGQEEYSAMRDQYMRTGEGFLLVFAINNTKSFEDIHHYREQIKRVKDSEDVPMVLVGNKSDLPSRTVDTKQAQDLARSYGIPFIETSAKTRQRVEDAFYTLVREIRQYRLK

Q: Which IC50 does the source give for `C=CC(=O)[C@]12CCN(c3nc(OC[C@@H]4CCCN4C)nc4c3CCN(c3cccc5cccc(Cl)c35)C4)C[C@H]1C2` [US20250019387, Example 44] here?
A: < 10 nM
